# Assay results from patent US20100022481A1, “Drug Carriers, Their Synthesis, and Methods of Use Thereof” (priority 2006, published 2010).
# Legend:
# rat mandible = test: Bilateral rat mandible model, bone growth and inflammation, histomorphometry; assay type: in vivo, Female Sprague Dawley rats; settings: for New Bone Area (mm^2 ± SEM) / New Bone Width-1 (mm ± SEM) / New Bone Width-3 (mm ± SEM): Table 1, pairs tested on contralateral sides; for new bone growth / bone anabolic effect (in words): one injection at rat mandible
# Source text: Specifically, a bilateral rat mandible model was used with test and control samples on contralateral sides. […] The rats were euthanized at 24 days and evaluated histomorphometrically at 24 days.
# [1] = Phase solubility of dexamethasone or PGE1 in the presence of ALN-CD
# Experimental: The experiments were carried out in triplicate. Tubes containing the solutions were sealed and shaken at 25° C. for 3 days. Suspensions were then filtered using a syringe through 0.22 μm filter. The concentration of dexamethasone or PGE1 in the filtrate was determined by HPLC equipped with a UV detector. For dexamethasone, 10 μg/ml fluorometholone was used as the internal standard.
# The conditions for detecting dexamethasone were as follows: chromatographic column: Agilent C18 reverse-phase (4.6×250 mm, 5 μm; Santa Clara, Calif.); mobile phase: acetonitrile-water (40:60, V/V) at a flow rate of 1 ml/min; UV detection at 240 nm.
# The conditions for detecting PGE1 were as follows: chromatographic column: Agilent C18 reverse-phase (4.6×250 mm, 5 μm); mobile phase: acetonitrile-0.01M KH2PO4 (42:58, v/v) at a flow rate of 1 ml/minute; UV detection at 205 nm.
# [2] = Binding potential of ALN-CD on HA; settings: rhodamine B label; 10 minutes with HA at room temperature, washed with H2O 5-10 times
# Experimental: 20 mg rhodamine B labeled ALN-CD or CD and 1 mg rhodamine B were dissolved in 0.5 ml water separately, and 100 mg of hydroxyapatite (HA) was added. The mixture was then allowed to stir gently for 10 minutes at room temperature. HA was recovered by centrifugation (10,000 rpm, 2 minutes), then washed with H2O 5-10 times to remove unbound compounds. The HA was allowed to dry under vacuum at room temperature.
# [3] = 50 μl of 400 mg/mL ALN-CD or 50 μl of 81 mg/ml ALN
# [4] = one injection, contralateral sides, 24 days
compound,measurement,setting,value
NCCCC(O)(P(=O)(O)O)P(=O)(O)O [alendronate],"cases with new bone on distant areas of the mandible (e.g., the medial surface)",rat mandible; [3],8 of 8
same,cases with new bone on the lateral surface of the mandible (location of injection),rat mandible; [3],5 of 8
same,New Bone Area (mm^2 ± SEM),rat mandible; 24 days,0.61 ± 0.12 mm^2
same,New Bone Width-1 (mm ± SEM),rat mandible; 24 days,0.14 ± 0.05 mm
same,New Bone Width-3 (mm ± SEM),rat mandible; 24 days,0.24 ± 0.11 mm
same,new bone area,rat mandible; equivalent amounts of ALN: 50 μl of 400 mg/mL ALN-CD or 50 μl of 81 mg/ml ALN,0.61 ± 0.12 mm^2
same,new bone growth / bone anabolic effect (in words),rat mandible; 24 days,moderate bone anabolic effect
"CCCCC[C@H](O)/C=C/[C@H]1[C@H](O)CC(=O)[C@@H]1CCCCCCC(=O)O [PGE1, prostaglandin E1]",new bone growth / bone anabolic effect (in words),rat mandible; 24 days,negligible
hydroxypropyl(HP)-β-CD [HP-β-CD],New Bone Area (mm^2 ± SEM),rat mandible; 24 days,0.25 ± 0.08 mm^2
same,New Bone Width-1 (mm ± SEM),rat mandible; 24 days,0.05 ± 0.02 mm
same,New Bone Width-3 (mm ± SEM),rat mandible; 24 days,0.19 ± 0.11 mm
same,increase in new bone width,rat mandible; [4],0.07±0.10 mm
same,percentage of osteoblasts on the lateral periosteal surface,rat mandible; [4],7.3%
C[C@@H]1C[C@H]2[C@@H]3CCC4=CC(=O)C=C[C@]4(C)[C@@]3(F)[C@@H](O)C[C@]2(C)[C@@]1(O)C(=O)CO [dexamethasone],aqueous solubility as a function of the concentration of ALN-CD,"[1]; ALN-CD 0 to 10 mM, 25° C., 3 days",increases
same,apparent 1:1 stability constant Kc,"[1]; complex with ALN-CD, water, 25° C.",2570 M⁻¹
same,solubility diagram type according to Higuchi and Connors,[1]; with ALN-CD,AL type
CCN(CC)c1ccc2c(-c3ccccc3C(=O)O)c3ccc(=[N+](CC)CC)cc-3oc2c1.[Cl-] [rhodamine B],color of HA after washings (binding to the HA surface),[2],disappeared
